# Measured values taken from patent publication US9056108B2, “Method of treating atrial fibrillation” (Gilead Sciences, Inc., priority 2009, dated 2015).
# How the values were obtained:
# [1] = tested on: canine pulmonary vein (PV) sleeve preparations; experiment: Superfused pulmonary vein (PV) sleeve preparations; conditions: ranolazine 5 μM; for Reduction in Vmax following change of rate: CL 5000 to 300 ms, dronedarone 10 μM (control 13%); for Diastolic threshold of excitation (DTE): CL of 300 ms, from 0.21±0.07; for Diastolic threshold of excitation (DTE) / Shortest pacing CL permitting a 1:1 response: dronedarone 10 μM; for Shortest pacing CL permitting a 1:1 response: untreated controls 116±8
# Description: Pulmonary vein (PV) sleeve preparations (approximately 2.0×1.5 cm) were isolated from left canine atria. The thickness of the preparation was approximately 2 mm. […] The preparations were placed in a small tissue bath and superfused with Tyrode's solution of the following composition (mM): 129 NaCl, 4 KCl, 0.9 NaH2PO4, 20 NaHCO3, 1.8 CaCl2, 0.5 MgSO4, 5.5 glucose, buffered with 95% O2/5% CO2 (35±0.5° C.). The PV preparations were stimulated at a basic cycle length (BCL) of 1000 ms during the equilibration period (1 h) using electrical pulses (1-3 ms duration, 2.5 times diastolic threshold intensity) delivered through silver bipolar electrodes insulated except at the tips. Transmembrane potentials were recorded (at a sampling rate of 40 kHz) using glass microelectrodes filled with 3 M KCl (10-20 MΩ DC resistance) connected to a high input-impedance amplification system (World Precision Instruments, model KS-700, New Haven, Conn.). The following parameters were measured: DTE, Vmax, and shortest S1-S1 permitting 1:1 activation. Acetylcholine (ACh, 1 μM), isoproterenol (1 μM), high calcium or their combination were used to induce late phase 3 EADs, DADs and triggered activity.
# [2] = tested on: isolated canine coronary-perfused right atria; experiment: Electrophysiology in isolated coronary-perfused canine right atrial preparations; conditions: for Shortest S1-S1 (shortest CL permitting 1:1 activation) / APD90 / ERP: ranolazine 5 μM, dronedarone 10 μM; for APD90 / ERP: pectinate muscle, CL of 500 ms
# Description: Experiments were performed using isolated coronary-perfused canine right atrial (RA) and left ventricular (LV) preparations (≈3×1.5×1 cm). Isolation and perfusion of the preparations were as previously described.^9, 15, 16 Briefly, preparations were dissected from hearts removed from anesthetized (sodium pentobarbital) adult mongrel dogs (20-30 kg). Unfolded RA with attached rim of the right ventricle was cannulated and perfused with cold cardioplegic solution (4-8° C.) through the ostium of the right coronary artery; the LV wedge was perfused through a diagonal branch of the left anterior descending coronary artery. Unperfused tissue was removed with a razor blade. Cut ventricular and atrial branches were ligated using silk thread. The preparations were then transferred to a temperature-controlled bath and arterially-perfused with Tyrode's solution by use of a roller pump. The composition of the Tyrode's solution was (in mM): NaCl 129, KCl 4, NaH2PO4 0.9, NaHCO3 20, CaCl2 1.8, MgSO4 0.5, and D-glucose 5.5, buffered with 95% O2 and 5% CO2 (37±0.5° C., pH=7.35)
# Transmembrane action potential (AP) recordings were obtained using floating glass microelectrodes at a sampling rate of 40 kHz. A pseudo-electrocardiogram (ECG) was recorded using two electrodes consisting of Ag/AgCl half cells placed in the Tyrode's solution bathing the preparation, 1.0 to 1.5 cm from the two opposite sides of the atrial or ventricular coronary-perfused preparations. Conduction time was approximated by the duration of “P wave” in atria and “QRS complex” in ventricles, at a level representing 10% of “P wave” and “QRS” amplitude. Diastolic threshold of excitation (DTE) was determined by increasing stimulus intensity in 0.01 mA steps. Effective refractory period (ERP) was measured by delivering premature stimuli at progressively shorter S1-S2 intervals after every 10 basic beats at a pacing cycle length (CL) of 500 ms (5 ms steps; 2 times DTE). Post-repolarization refractoriness (PRR) was recognized when ERP exceeded action potential duration measured at 90% repolarization (APD90) in the ventricle and APD measured at 70% repolarization (APD70) in atria. Ventricular ERP was coincident with APD90, whereas atrial ERP was generally coincident with APD70-75.^9 The shortest S1-S1 permitting 1:1 activation was measured by progressively shortening pacing CL starting from a CL of 500 ms.
# Stable AP recordings could not be readily obtained in the vigorously contracting perfused preparations. The largest recorded maximum rate of rise of the AP upstroke (Vmax) values per experimental condition were taken for statistical comparison. Only APs having amplitudes of at least 100 mV were considered in the analysis. The largest Vmax criterion was used because this was associated with the largest amplitude and the most negative resting membrane potential, depicting full or near full impalement. In determining use-dependent depression of Vmax, values were normalized to the Vmax value at a CL of 500 ms for each experiment and then averaged.
# Because of their dependence on peak INa, Vmax, DTE, PRR, and conduction time as well the shortest S1-S1 interval permitting 1:1 activation are referred to as INa-dependent parameters.
# The equilibration period for the coronary-perfused preparations was 30-120 min. The preparations were exposed to 5 μM ranolazine, 10 μM dronedarone (after 30 min washout of ranolazine), and the combination of these agents for at a period of at least 20 min. In time-control experiments, 20 minutes was sufficient to achieve steady-state in the effects of each of the drugs to alter electrophysiologic parameters. Recordings were obtained at a cycle length (CL) of 500 and 300 ms, unless otherwise indicated. […] When determining the shortest S1-S1 pacing rate permitting 1:1 activation, the stimulation intensity was DTE x 2, determined at a CL of 500 ms.
# [3] = tested on: ACh-mediated persistent AF in isolated canine coronary-perfused right atria; experiment: Acetylcholine (ACh)-mediated persistent AF model in coronary-perfused right atria; conditions: for Termination Persistent AF: ACh 1 μM-mediated persistent AF; for Prevention of AF re-induction: after termination of ACh-mediated AF; for Reduction/suppression of persistent AF: canine perfused right atrial preparations; for Induction of Persistent AF: in presence of ACh 1 μM
# Description: To assess the anti-AF potential of ranolazine, dronedarone, and their combination, we used an acetylcholine (ACh, 1.0 μM)-mediated AF model. In the presence of ACh, premature electrical stimulation (PES) or rapid pacing (CL=50-80 ms) induces persistent AF in 100% of canine coronary-perfused right atrial preparations.^9 The effect of the drugs was assessed to prevent (series 1) the induction of AF. In a separate set of preparations, the ability of these agents was evaluated to terminate (series 2) persistent AF. In the first series, ACh was added to the perfusate 20-30 min after the start of perfusion with 5 μM ranolazine, 10 μM dronedarone, or the combination of these agents. This was followed by attempts to induce the arrhythmia electrically. In the second series, the agents were added to the perfusate during ACh-mediated persistent AF (on the 5-6th minutes after the start of the arrhythmia). In cases in which the drug terminated AF, we attempted to re-induce the arrhythmia with rapid pacing.
# [4] = tested on: ACh-mediated persistent AF in isolated canine coronary-perfused right atria; experiment: as above; conditions: ranolazine 5 μM, dronedarone 10 μM; without ACh
# [5] = 2x threshold stimulus intensity, without ACh, in ms (unit assumed)
# [6] = ranolazine 5 μM, dronedarone 10 μM
Compound,Reduction in Vmax following change of rate [1] [%],Diastolic threshold of excitation (DTE) [1] [mA],Shortest pacing CL permitting a 1:1 response [1] [ms],"Shortest S1-S1 (shortest CL permitting 1:1 activation) [2, 5]",Shortest S1-S1 (shortest CL permitting 1:1 activation) ([2]; in presence of ACh 1 μM),APD90 ([2]; in presence of ACh 1 μM) [ms],ERP ([2]; in presence of ACh 1 μM) [ms],APD90 ([2]; without ACh) [ms],ERP ([2]; without ACh) [ms],"Termination Persistent AF [3, 6] [%]","Prevention of AF re-induction [3, 6] [%]",Reduction/suppression of persistent AF [3] [%],"Induction of Persistent AF [3, 6] [%]","Prevention of induction of sustained/persistent AF (atria) ([3]; pretreatment, then ACh 1 μM, ranolazine 5 μM, dronedarone 10 μM)",Induction of Persistent AF [4] [%],Prolongation of atrial ERP ([2]; current in vitro investigation) [%]
"COc1ccccc1OCC(O)CN1CCN(CC(=O)Nc2c(C)cccc2C)CC1 (racemic) [Ranolazine, (±)-N-(2,6-dimethylphenyl)-4-[2-hydroxy-3-(2-methoxyphenoxy)-propyl]-1-piperazineacetamide]",19,0.24±0.09,121 ± 13,201 ± 22,94 ± 11,52 ± 6,72 ± 13,210 ± 10,181 ± 11,20,100,29,71,2/7,0,
"CCCCc1oc2ccc(NS(C)(=O)=O)cc2c1C(=O)c1ccc(OCCCN(CCCC)CCCC)cc1 [Dronedarone, N-(2-Butyl-3-(p-(3-(dibutylamino)propoxy)benzoyl)-5-benzofuranyl)methanesulfonamide]",20,0.26±0.09,120 ± 12,147 ± 11,88 ± 13,45 ± 5,59 ± 7,202 ± 9,171 ± 11,17,0,17,83,,0,9
